Patent publication US20190046539A1, “PROPHYLACTIC OR THERAPEUTIC AGENT FOR NEUROPATHIC PAIN ASSOCIATED WITH GUILLAIN-BARRE SYNDROME” (KYUSHU UNIVERSITY, priority 2011, published 2019)

Columns and labels:
[1] = test system: experimental autoimmune neuritis (EAN) rat model; assay: Therapeutic administration, pain threshold of EAN rat model; assay type: in vivo; details: therapeutic administration into the subarachnoid space from thirteen days after immunization (average manifestation score 2 or more); male LEW/CrlCrlj rat; FIG. 3
Text: (§1) The effect of P2X4 receptor antagonist on neuropathic pain was examined using an experimental autoimmune neuritis (EAN) rat model (Examples 3 and 4), which has been used as an experimental model for Guillain-Barré syndrome ([…]).
Six-week-old male LEW/CrlCrlj rat was acclimatized for about one week, and an indwelling polystyrene catheter with a 0.30 mm outside diameter was placed into the subarachnoid space. Three days or more after indwelling of the catheter for administration into the subarachnoid space, the rat was anesthetized with isoflurane, and an adjuvant or P2 peptide-adjuvant solution was administered by intradermal tale base injection in an amount of 80 μg/80 μL/rat. Micro Infusion Pump was simultaneously placed into the back of the rat, and administration of the vehicle into the subarachnoid space was initiated. After immunization, symptom was observed (Table 2), and change of pain threshold was observed.

[2] = test system: experimental autoimmune neuritis (EAN) rat model; assay: Preventive administration, pain threshold of EAN rat model; assay type: in vivo; details: preventive continuous administration into the subarachnoid space by Micro Infusion Pump from immunization with P2 peptide-adjuvant; male LEW/CrlCrlj rat; FIG. 2
Text: as §1
Six-week-old male LEW/CrlCrlj rat was acclimatized for about one week, and an indwelling polystyrene catheter with a 0.30 mm outside diameter was placed into the subarachnoid space. Three days or more after indwelling of the catheter for administration into the subarachnoid space, the rat was anesthetized with isoflurane, and an adjuvant or P2 peptide-adjuvant solution was administered by intradermal tale base injection in an amount of 80 μg/80 μL/rat. The compound A was continuously administered by Micro Infusion Pump (Primetech). The pump was placed at the same time of administration of P2 peptide-adjuvant.

O=C1CC(=O)N(c2cccc(-c3nnn[nH]3)c2)c2ccc3ccccc3c2N1.[K] [Compound A, 5-[3-(1H-tetrazol-5-yl)phenyl]-1H-naphtho[1,2-b][1,4]diazepine-2,4(3H,5H)-dione potassium salt]
influence on pain threshold (analgesic effect) [1]: significant analgesic effect on pain in later manifestation of the disease | influence on pain threshold (allodynia) [2]: suppress pains in initial and later manifestations of the disease
